Some test systems named below: MDA-MB-231 breast; U251 CNS; UO-31 renal; SK-MEL-5 melanoma; HCT-116 colon; NCI-H23 lung; SK-MEL-2 melanoma; M14 melanoma; TK-10 renal; SF-539 CNS; HT29 colon; MALME-3M melanoma; SK-OV-3 ovarian; DU-145 prostate; OVCAR-8 ovarian; MDA-MB-435; MCF7 breast; UACC-257 melanoma; MOLT-4 leukemia; CAKI-1 renal.
Assay in all cases: growth of human tumour cells (NCI), 48 h

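Results reflect a 48-hour exposure of cells in 96-well plates to compound at five concentrations. TGI: total growth inhibition.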

Turning to `Cc1cc(C)nc(NS(=O)(=O)c2ccc(NNc3c4ccccc4nc4c(C(=O)Nc5ccc(S(N)(=O)=O)cc5)cccc34)cc2)n1`, the TGI in the test with MDA-MB-231 breast was 89 µM; in the test with U251 CNS, 70.3 µM; with UO-31 renal it was above 100 µM; with SK-MEL-5 melanoma, above 100 µM; with HCT-116 colon, above 100 µM; in the test with NCI-H23 lung, above 100 µM. Moreover, the TGI in the test on SK-MEL-2 melanoma is 46.7 µM; in the test with M14 melanoma, above 100 µM; in the test with TK-10 renal it was above 100 µM; in the test on SF-539 CNS it was above 100 µM; in the test with HT29 colon, above 100 µM; in the test on MALME-3M melanoma, above 100 µM. The TGI in the test with SK-OV-3 ovarian, in the test on DU-145 prostate, in the test on OVCAR-8 ovarian, in the test on MDA-MB-435, in the test with MCF7 breast and in the test on UACC-257 melanoma was above 100 µM each time. Also, the TGI with MOLT-4 leukemia and with CAKI-1 renal was above 100 µM throughout.
In the case of `Clc1ccc(OCc2nnc(CCCCCCCCc3nnc(COc4ccc(Cl)cc4Cl)n3Nc3ccccc3)n2Nc2ccccc2)c(Cl)c1`, the TGI in the test on MDA-MB-231 breast was found to be 24.4 µM; in the test on U251 CNS it was 27.1 µM; in the test on UO-31 renal it was 40 µM; in the test on SK-MEL-5 melanoma it was 7.05 µM; in the test with HCT-116 colon, 25.1 µM; in the test on NCI-H23 lung, 51 µM. Further, the TGI with SK-MEL-2 melanoma is 24.8 µM; with M14 melanoma it was 29.2 µM; in the test on TK-10 renal it was above 75.1 µM; in the test on SF-539 CNS, 33.5 µM; in the test with HT29 colon, 35.8 µM; in the test on MALME-3M melanoma it was 40.6 µM. Moreover, the TGI with SK-OV-3 ovarian was 39.8 µM; in the test on DU-145 prostate, above 62.7 µM; in the test on OVCAR-8 ovarian it was 50.3 µM; with MDA-MB-435 it was 19.5 µM; in the test on MCF7 breast, 45.6 µM; in the test with UACC-257 melanoma it was 36.2 µM. In addition, the TGI in the test with MOLT-4 leukemia was above 100 µM; in the test with CAKI-1 renal it was 49.3 µM.
For `Cc1occc1C(=S)Nc1ccc(Cl)c(C(=O)OC(C(C)C)C(C)C)c1`, the TGI with MDA-MB-231 breast was 27.2 µM; in the test on U251 CNS it was 34.1 µM; with UO-31 renal, 17.5 µM; in the test with SK-MEL-5 melanoma, 32 µM; in the test on HCT-116 colon, 24.5 µM; in the test with NCI-H23 lung, 23 µM. In addition, the TGI in the test with SK-MEL-2 melanoma was found to be 38.4 µM; in the test on M14 melanoma, 35.3 µM; in the test with TK-10 renal it was 32.4 µM; with SF-539 CNS, 35 µM; with HT29 colon, 33.5 µM; in the test with MALME-3M melanoma, 26 µM. Further, the TGI was 53.2 µM in the test with SK-OV-3 ovarian; 32 µM in the test on DU-145 prostate; 26.5 µM in the test with OVCAR-8 ovarian; 65.8 µM in the test with MDA-MB-435; 34 µM with MCF7 breast; 19.2 µM in the test on UACC-257 melanoma. Moreover, the TGI with MOLT-4 leukemia turned out to be 23.1 µM; in the test with CAKI-1 renal, 35.4 µM.
For `O=C(N/N=C/c1c(-c2ccccc2)no[n+]1[O-])N1CCOCC1`, the TGI in the test on MDA-MB-231 breast, in the test with U251 CNS, in the test on UO-31 renal, in the test on SK-MEL-5 melanoma, in the test on HCT-116 colon and with NCI-H23 lung was above 100 µM in each case. The TGI in the test with SK-MEL-2 melanoma, in the test on M14 melanoma, with TK-10 renal, in the test with SF-539 CNS, in the test with HT29 colon and in the test on MALME-3M melanoma was above 100 µM each time. Besides, the TGI in the test with SK-OV-3 ovarian, in the test with DU-145 prostate, in the test on OVCAR-8 ovarian, in the test with MDA-MB-435, in the test with MCF7 breast and with UACC-257 melanoma was above 100 µM in each case. The TGI with MOLT-4 leukemia and in the test with CAKI-1 renal was above 100 µM throughout.
With `COc1c(OC(C)C)c(OC(C)C)c2oc(=O)n3c2c1C(c1ccccc1-n1c(C)ccc1C)C=C3` (stereo not given), the TGI in the test on MDA-MB-231 breast, with U251 CNS, in the test on UO-31 renal, in the test on SK-MEL-5 melanoma, in the test with HCT-116 colon and in the test on NCI-H23 lung was above 100 µM throughout. Moreover, the TGI in the test with SK-MEL-2 melanoma is above 100 µM; with M14 melanoma it was above 100 µM; in the test on TK-10 renal it was above 100 µM; in the test on SF-539 CNS, above 100 µM; in the test on HT29 colon, above 100 µM; in the test with MALME-3M melanoma it was 50 µM. The TGI in the test on SK-OV-3 ovarian, in the test on DU-145 prostate, with OVCAR-8 ovarian, in the test on MDA-MB-435, with MCF7 breast and with UACC-257 melanoma was above 100 µM each time. In addition, the TGI with MOLT-4 leukemia and with CAKI-1 renal was above 100 µM each time.
In the case of `NC(N)=NS(=O)(=O)c1ccc(NNc2c3ccccc3nc3c(C(=O)Nc4ccc(S(=O)(=O)N=C(N)N)cc4)cccc23)cc1`, the TGI in the test with MDA-MB-231 breast, in the test with U251 CNS, with UO-31 renal, in the test on SK-MEL-5 melanoma, in the test with HCT-116 colon and in the test with NCI-H23 lung was above 100 µM throughout. Besides, the TGI was above 100 µM with SK-MEL-2 melanoma; above 100 µM with M14 melanoma; above 100 µM in the test with TK-10 renal; above 100 µM in the test with SF-539 CNS; above 100 µM in the test with HT29 colon; 79.1 µM with MALME-3M melanoma. The TGI with SK-OV-3 ovarian, in the test on DU-145 prostate, with OVCAR-8 ovarian, in the test on MDA-MB-435, in the test on MCF7 breast and in the test with UACC-257 melanoma was above 100 µM in each case. In addition, the TGI was 80.4 µM in the test with MOLT-4 leukemia and above 100 µM in the test with CAKI-1 renal.
In the case of `c1ccc(C2=NCCN2)c(C2=NCCN2)c1`, the TGI with MDA-MB-231 breast, with U251 CNS, with UO-31 renal, with SK-MEL-5 melanoma, in the test with HCT-116 colon and in the test on NCI-H23 lung was above 100 µM throughout. Also, the TGI in the test on SK-MEL-2 melanoma, with M14 melanoma, in the test with TK-10 renal, with SF-539 CNS, with HT29 colon and with MALME-3M melanoma was above 100 µM in each case. Also, the TGI with SK-OV-3 ovarian, in the test with DU-145 prostate, in the test with OVCAR-8 ovarian, in the test with MDA-MB-435, in the test on MCF7 breast and in the test on UACC-257 melanoma was above 100 µM in each case. Moreover, the TGI in the test with MOLT-4 leukemia and in the test on CAKI-1 renal was above 100 µM throughout.

Source of the values: PubChem BioAssay (NCI).
